System: plants
Experiment: auxin effect on plants (media based agriculture)
Format: in vivo
Settings: media based agriculture with and without soil; statement in words only
Excerpt: The resulting monomer can be leached through the media column and recuperated in pure form after filtering out any bacteria using appropriate filtration such as diatomaceous earth or filter paper. This can also be carried out in media based agriculture both with and without soil.

## 3-4 deoxy-glucosamine [monomer]
  auxin effect on plants: pronounced auxin effect

Source: patent US20200362380A1, “Novel Biomolecule and Methods of Manufacturing Thereof” (priority 2018, published 2020)
